Source: patent US11576987B2, “Compositions and methods of treating melanoma” (UNIVERSITY OF IOWA RESEARCH FOUNDATION, priority 2016, dated 2023)
Positions of bridges follow the written chain, without caps; N, C: chain ends. Non-standard residues stand in square brackets, D forms with d. Residues, ends and D or L forms follow the SMILES beside them. Groups on a side chain read outwards from the residue. Triazole bridges read from a SMILES are 1,4-linked. *: point of attachment. DOTA = O=C(O)CN1CCN(CC(=O)O)CCN(CC(=O)*)CCN(CC(=O)O)CC1; Lys(N3) = [N-]=[N+]=NCCCC[CH](N)C(=O)O; Nle = CCCC[CH](N)C(=O)O; Pra = C#CC[CH](N)C(=O)O; PEG2 = NCCOCCOCCC(=O)O

Tests used:
[1] = tested on: MCR1 expression; assay: Pharmacological enhancement of MCR1 expression in human melanoma cells by drug incubation; format: cell-based; settings: for MCR1 expression: metastatic melanoma cells
Description: Melanoma if detected early can be cured by surgery, but metastatic melanoma is lethal. New therapies (e.g., immunotherapy; BRAF inhibition, BRAFi) and combinations extend life, but low response rates, acquired drug resistance, and serious side effects are major challenges to improving outcomes for disseminated disease (5 y survival 17%). Peptide-based radionuclide therapy targeted to the melanocortin-receptor type 1 (MCR1-RT) has long been considered a promising alternative; and MCR1-RT has achieved complete responses in mouse models (B16). However, MCR1 expression is heterogeneous/low in human melanoma, and as a result, no previous MCR1-RT study has employed successfully human melanoma cell xenografts. […] This introduces innovative Pb-specific chelator combined with a “click-cyclized” peptide (PSC-C-MCR1) to improve tumor:kidney ratio of radionuclide uptake 7-fold. An effective therapy for metastatic melanoma is developed that combines MCR1-RT with pharmacological agents (PBA; BRAFi/MEKi; HDACi) that enhance MCR1 expression.
Melanoma is the fastest growing cancer incidence in the United States. Surgery combined with radiation can be curative at early stages. However, metastatic melanoma is almost uniformly fatal (5-yr survival 17%). Recent breakthrough targeted MAPKi therapies (e.g., BRAFi) and immunotherapies (e.g., PD-1 inhibitors) have improved outcomes, but low response rates, acquired drug resistance, and adverse side effects limit quality of life for metastatic melanoma patients. For example, approval of immune-checkpoint inhibitor ipilimumab was based on an improvement in overall survival of only 3.7 months (overall response <15%). Combination immunotherapies have improved response (up to 61%), but grade 3/4 adverse events (up to 55%) often lead to therapy discontinuation (up to 36%). For targeted therapies, BRAF inhibitor vemurafenib was approved based on overall survival at 6 months of 84% vs 64% in the control arm (dacarbazine). Combining BRAFi with MEK inhibitors (MEKi) has led to modest improvements, yet recurrence is virtually inevitable. The mechanisms of acquired drug resistance are complex, and include altered/alternative oncogenic pathways; tumor heterogeneity; and enhanced DNA repair. Melanocortin-receptor type 1 targeted radionuclide therapy (MCR1-RT) has long been considered a promising alternative treatment for melanoma; and MCR1-targeted α-particle therapy (^212Pb) has achieved complete responses in mice bearing mouse (B16) tumors that highly express MCR1. However, these studies have been confined primarily to mouse melanoma (B16) cells because MCR1 expression is heterogeneous/low in human melanoma.
Combination therapies for metastatic melanoma are emerging as common practice (e.g., BRAFi plus MEK; and combination immunotherapies), but melanoma almost invariably develops resistance. MCR1-RT has long been considered a promising alternative, but previous therapy studies have been limited to the use of B16 mouse melanoma cells that highly express the MCR1 protein, because native MCR1 expression in human melanoma is heterogeneous/low.

[2] = tested on: MC1R expression; assay: Real-time PCR analysis of MC1R expression in melanoma cells; format: cell-based, human; settings: substantiated by flow cytometry and radiopeptide binding
Method: FIG. 10. Real-time PCR analysis of MC1R expression in A2058 and MEWO melanoma cells. A2058 cells were exposed to BRAFi GSK2118436, MEKi GSK1120212 and HDACi PBA for 24 h. Similarly, MEWO cells were treated with PBA and SAHA. Total RNA was isolated and reverse transcripted to cDNA. Real-time PCR was performed using 50 ng of each cDNA sample with labeled primer VIC-MC1R and FAM-NADPH. mRNA fold changes were calculated by ΔΔCt method and expressed as (n=3; Mean±SEM).
qPCR measurements are included to measure the change in MCR1 mRNA with changes in the concentration and incubation time for each drug and combinations (FIG. 10). These experiments are carried out as in FIG. 10 according to manufacturers' protocols, cells are seeded into 6-well plates until ˜80% confluent. After drug treatments, total RNA is isolated (Qiagen RNeasy Mini Kit). 1 μg of total RNA from each cell sample is used for reverse transcription using a high capacity reverse transcription kit (Applied Biosystem). cDNA samples are kept at −80° C. until use. Upon use, cDNA templates are employed in the qRT-PCR using a Taqman Gene Expression Assay for human MC1R (Assay ID: Hs00267167_s1). Human 18S (Assay ID: Hs99999901_s1) and human GAPDH (Assay ID: Hs03929097_g1) are used as housekeeping gene controls. […] Reactions are carried out in Applied Biosystem 7900HT. mRNA level is calculated by comparative ΔΔCt method.

[3] = tested on: metastatic melanoma; settings: patients, cited from earlier work
[4] = tested on: BRAFi-resistant A375VR cells; assay: Clonogenic survival of BRAFi-resistant melanoma cells; format: cell-based, human; settings: 5 μM vemurafenib in the absence of PBA
Method: FIGS. 13A-13B. PBA treatment promotes cell death of BRAFi-resistant metastatic melanoma and upregulates MCR1 expression in a time dpe. (A) BRAFi-resistant A375VR cells were incubated with 5 μM vemurafenib in combination with ER-stress-relieving drug 4-PBA for up to 6 days. […] (B) Flow cytometry analysis of MCR1 expression in A2058 and A375 malignant melanoma cells. Cells were treated with 3 mmole 4-PBA for 4 h and 24 h (n=3). The treated and untreated (control) cells were stained with anti-MC1R-phycoerythrin (PE) monoclonal antibody conjugate. Fluorescence intensity was corrected by auto-fluorescence of cells without staining and data were expressed as relative fluorescence intensity (IF) (vs. control)±SD.
Accumulation of misfolded-proteins causes upregulation and detachment of ER resident protein GRP78 from ER sensors proteins—activating the unfolded protein response (UPR) and downstream signaling pathways (including autophagy). […] Thus, the potential for a pharmacological treatment that would sensitize BRAFi-resistant cells to BRAFi by reducing ER-stress was considered. BRAFi-resistant A375VR melanoma cells were incubated with BRAFi vemurafenib alone and in combination with ER-stress relieving PBA.

[5] = tested on: B16 mouse metastatic melanoma tumor model; assay: Tumor and kidney accumulation of click cyclized MCR1 peptide in mouse studies; format: in vivo; settings: i.v. injection
Description: (§1) The peptide backbone selected for the proposed investigation is based on a variant that was introduced previously with the addition of new evidence for improved internalization with the inclusion of a short polyethylene glycol linker between the chelator and the peptide backbone (FIG. 17). […] This peptide performance represents a 7-fold improvement in tumor:kidney ratio compared to the Re-cyclized peptide used previously. The use of the Re-cyclized peptide is for comparison to the previously published alpha-particle MCR1-targeted therapy study (using B16 mouse melanoma tumors). (Leachman S A, Cassidy P B, Chen S C, Curiel C, Geller A, Gareau D, Pellacani G, Grichnik J M, Malvehy J, North J, Jacques S L, Petrie T, Puig S, Swetter S M, Tofte S, Weinstock M A. Methods of Melanoma Detection. Cancer Treat Res. 2016; 167:51-105.) Thus, the DOTA-C-MCR1 (published previously) and new PSC-C-MCR1 peptides shown in FIG. 17 are used to take advantage of the observed improved tumor:kidney ratio.
(§2) Preliminary data support the hypothesis that co-injection of PBA with [^203Pb]MCR1-targeted peptides can reduce kidney accumulation of the radiopeptide (FIGS. 14A-B), while improving tumor accumulation in mice bearing human metastatic melanoma tumors (FIG. 14B imaging; FIGS. 15A-B therapy). […]

[6] = as above; format: in vivo; settings: kidney, iv, 90 min. post i.v. injection
Description: as §1, §2

[7] = tested on: B16 mouse metastatic melanoma tumor model; settings: 60 m post injection; cited from earlier work

## O=C(c1ccc(F)c(F)c1Nc1ccc(I)cc1F)N1CC(O)([C@@H]2CCCCN2)C1 [cobimetinib]
[1]
  MCR1 expression: upregulate MCR1 expression

## O=C(CCCCCCC(=O)Nc1ccccc1)NO [Vorinostat]
[2]
  MCR1 expression by RT-PCR: Enhanced expression of MCR1
[1]; human melanoma cells, incubation with drug
  enhancement of MCR1 expression: up to 12 fold

## ipilimumab: immune-checkpoint inhibitor
[3]; basis of approval
  improvement in overall survival: 3.7 months
[3]
  overall response: < 15%

## CC(C)(C)c1nc(-c2cccc(NS(=O)(=O)c3c(F)cccc3F)c2F)c(-c2ccnc(N)n2)s1 [dabrafenib]
[1]
  MCR1 expression: upregulate MCR1 expression

## CCCS(=O)(=O)Nc1ccc(F)c(C(=O)c2c[nH]c3ncc(-c4ccc(Cl)cc4)cc23)c1F [vemurafenib]
[3]; approval trial
  overall survival at 6 months: 84%
[3]; metastatic melanoma
  slowing of tumor progression: about 5.3 months
[1]
  MCR1 expression: upregulate MCR1 expression
[4]
  clonogenic survival: No change in clonogenic survival

## CCCCC(NC(C)=O)C(=O)NC1Cc2cn(nn2)CCCCC(C(=O)NC(CCCCNC(=O)CCOCCOCCNC(=O)CN2CCN(CC(=O)O)CCN(CC(=O)O)CCN(CC(=O)O)CC2)C(N)=O)NC(=O)C(Cc2c[nH]c3ccccc23)NC(=O)C(CCCNC(=N)N)NC(=O)C(Cc2ccccc2)NC(=O)C(Cc2c[nH]cn2)NC1=O (stereo not shown) [[^68Ga]DOTA-C-MCR1, metal not drawn] (Ac-[Nle][Pra]HFRW[Lys(N3)]K([PEG2-DOTA])-NH2; triazole 2-7; configuration not given here)
[5]
  injected dose per gram (tumor): up to 16 % ID/g
[6]
  tissue uptake at 1.5 h: < 5 %ID/g
[7]
  tumor:kidney ratio: 3.4
